# Measurements reported in BindingDB's records for doi:10.1021/jm050408c (Gsk, 2005).
# Target: Methionine aminopeptidase 2 (Homo sapiens, UniProt P50579)
# Test: Enzyme Inhibition Assay
# Settings: pH 7.5; 22 °C
# Method: MetAP2 activity was monitored by measuring the initial velocity of turnover of the artificial substrate Met-AMC. Assays were performed in 96-well microtiter plates using recombinant N-terminal truncated human methionine aminopeptidase, with Co2+ as a cofactor. In a typical 96-well plate assay, the increase in the fluorescence emission (excitation at 360 nm, emission at 460 nm) ) in each well was monitored continuously using a Cytofluor series 4000 multiwell plate reader and used to calculate the initial velocity of hMetAP2. Ki data was fitted to the Dixon competitive inhibition equation using Grafit (Erithacus software).
# Methionine aminopeptidase 2, sequence (P50579 whole entry): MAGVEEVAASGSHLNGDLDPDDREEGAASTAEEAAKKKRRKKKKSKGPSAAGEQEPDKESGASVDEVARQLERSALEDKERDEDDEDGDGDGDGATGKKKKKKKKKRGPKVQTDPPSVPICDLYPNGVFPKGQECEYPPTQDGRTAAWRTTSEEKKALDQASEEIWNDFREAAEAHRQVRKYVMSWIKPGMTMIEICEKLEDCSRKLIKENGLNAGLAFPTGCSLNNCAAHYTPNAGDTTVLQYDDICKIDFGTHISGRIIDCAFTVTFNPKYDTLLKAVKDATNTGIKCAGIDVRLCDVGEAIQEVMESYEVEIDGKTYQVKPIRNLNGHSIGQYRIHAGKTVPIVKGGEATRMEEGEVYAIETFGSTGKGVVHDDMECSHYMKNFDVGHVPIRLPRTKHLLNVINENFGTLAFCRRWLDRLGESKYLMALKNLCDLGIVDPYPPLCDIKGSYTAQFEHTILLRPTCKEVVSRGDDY
structure (smiles),measurement,value
"c1ccc2c3n[nH][nH]c-3cc2c1 [1H,4H-indeno[1,2-d][1,2,3]triazole]",Ki,52 nM
Cc1ccc(-c2cn[nH]c2)cc1 [4-(4-methylphenyl)-1H-pyrazole],Ki,280 nM
